Values joined by “and” are separate entries in the source; they are usually repeats but may differ in a detail not shown here. Equal values may be shown once.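 The compound was tested at five concentrations on cells cultured in 96-well plates, with a 48-hour exposure period. The concentration for 50% growth inhibition is given as GI50. Definition used: TGI = concentration required for complete inhibition of growth.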
Assays:
Experiment in all cases: inhibition of tumour cell growth, NCI panel, 48 h
A498 renal = system: A498 renal
COLO 205 colon = system: COLO 205 colon
DU-145 prostate = system: DU-145 prostate
HOP-62 NSCLC = system: HOP-62 NSCLC
M14 melanoma = system: M14 melanoma
MALME-3M melanoma = system: MALME-3M melanoma
MDA-MB-231 breast = system: MDA-MB-231 breast
MDA-MB-435 = system: MDA-MB-435
OVCAR-8 ovarian = system: OVCAR-8 ovarian
UACC-257 melanoma = system: UACC-257 melanoma

Compound	GI50 (A498 renal)	TGI (A498 renal)	GI50 (COLO 205 colon)	TGI (COLO 205 colon)	GI50 (DU-145 prostate)	TGI (DU-145 prostate)	GI50 (HOP-62 NSCLC)	TGI (HOP-62 NSCLC)	GI50 (M14 melanoma)	TGI (M14 melanoma)	GI50 (MALME-3M melanoma)	TGI (MALME-3M melanoma)	GI50 (MDA-MB-231 breast)	TGI (MDA-MB-231 breast)	GI50 (MDA-MB-435)	TGI (MDA-MB-435)	GI50 (OVCAR-8 ovarian)	TGI (OVCAR-8 ovarian)	GI50 (UACC-257 melanoma) [µM]	TGI (UACC-257 melanoma) [µM]
CN(C)c1ccc(/C=N/NC(N)=S)nc1	1.92 µM	9.37 µM	4.27 µM	> 100 µM	2.45 µM	16.3 µM	3.11 µM	> 100 µM	2.28 µM	5.23 µM	7.91 µM	> 100 µM	5.43 µM	> 100 µM	4.01 µM	> 100 µM	3.24 µM	> 100 µM	24.4	> 100
Cc1c(Cn2c(C)nc3c(C(=O)O)cc(N4CCOCC4)cc32)cccc1C(F)(F)F	0.0339 µM	0.319 µM	49.2 µM	> 100 µM	> 92.9 µM	> 100 µM	37.5 µM	> 100 µM	37.1 µM	> 100 µM	> 69.7 µM	> 100 µM	> 100 µM	> 100 µM	66 µM	> 100 µM	33.7 µM	> 100 µM	61.1	> 100
OC1CC2CCC(C1)N2CCCN1c2ccccc2Sc2ccc(Cl)cc21 (stereo not given)		5.62 µM		3.35 µM		9.35 µM		10.4 µM		3.56 µM		3.59 µM		3.66 µM		3.31 µM		4.86 µM		2.6
O=C(c1c(F)c(F)c(F)c(F)c1F)c1c(F)c(F)c(F)c(F)c1F		9.16 µM		3.28 µM		4.64 µM		3.49 µM		5.97 µM		3.23 µM		3.46 µM		3.21 µM		2.97 µM		4.65
CN1C(=O)CCC(N2C(=O)c3cccc(NCCOCCOCCNC(=O)c4cc5c(o4)C(=O)c4ccccc4C5=O)c3C2=O)C1=O (stereo not given)	1.71 µM	3.2 µM	2.06 µM	4.04 µM	1.5 µM	2.89 µM	1.97 µM	3.43 µM	1.35 µM	2.74 µM	0.151 µM	0.316 µM	2.64 µM	8.77 µM	1.05 µM	2.28 µM	2.45 µM	14.7 µM	1.59	3.11
CCSC[C@@H]1C[C@](O)(c2ccc(Cl)cc2)[C@@H](c2ccc(Cl)cc2)O1	17.8 µM	32.1 µM	14.4 µM	28.7 µM	15 µM	30 µM	16.7 µM	30.7 µM	15.3 µM	29.6 µM	15.2 µM	29.8 µM	18.2 µM	35.4 µM	19.2 µM	40.1 µM	17.4 µM	45 µM	15.1	30.1
COc1ccc(Nc2nc(NCCNc3ccnc4cc(Cl)ccc34)nc(N3CCOCC3)n2)cc1	0.272 µM	2.19 µM	1.53 µM	3.33 µM	9.8 µM	21.9 µM	8.09 µM	21.6 µM	1.86 µM	3.47 µM	1.94 µM	3.47 µM	2.73 µM	10.2 µM	1.82 µM	3.49 µM	6.46 µM	27.4 µM	1.87	3.61
CCCc1nn(C)c2c(=O)[nH]c(-c3cc(S(=O)(=O)N4CCN(C)CC4)ccc3OCC)nc12	25.6 µM	> 100 µM	> 100 µM	> 100 µM	> 100 µM	> 100 µM	> 100 µM	> 100 µM	> 100 µM	> 100 µM	> 100 µM	> 100 µM	> 100 µM	> 100 µM	> 100 µM	> 100 µM	> 100 µM	> 100 µM	> 100	> 100
O=C1c2c(c(=O)[nH]c3ccccc23)[C@H](c2ccccc2)[C@@H]2CCCN12	1.93 µM	9.09 µM	14.6 µM	44.5 µM	3.38 µM	27.5 µM	4.32 µM	34 µM	3.53 µM	14.5 µM	6.87 µM	43.8 µM	3.06 µM	27.5 µM	3.7 µM	15.2 µM	3.62 µM	> 100 µM	5.13	53
COc1ccc2cc(-c3cnc4nonc4n3)ccc2c1	1.15 µM	8.79 µM	3.12 µM	> 100 µM	24.4 µM	> 100 µM	5.22 µM	64 µM	1.91 µM	6.38 µM	4.03 µM	> 100 µM	14.1 µM	> 100 µM	1 µM	3.35 µM	2.54 µM	> 100 µM	7.89	> 100
Cc1ccc(OP(=O)(Oc2ccc(C)cc2)N2C=Cc3ccccc3C2C#N)cc1 (stereo not given)		> 100 µM		> 100 µM		> 100 µM		> 100 µM		> 100 µM		> 100 µM		> 100 µM		> 100 µM		> 100 µM		> 100
COc1cc(CCC[P+](c2ccccc2)(c2ccccc2)c2ccccc2)c(OC)c2c1OCO2	1.41 µM	4.28 µM	0.907 µM	3.38 µM	3.21 µM	74.5 µM	2.91 µM	11.3 µM	1.8 µM	13.7 µM	0.602 µM	6.92 µM	2.11 µM	10.3 µM	0.494 µM	5.91 µM	2.36 µM	24.2 µM	0.378	6.44
CC1=C(C#N)C23C(=O)N(c4ccccc4)C(=O)C2=C(O)C=CC3(O)N1Cc1ccc(Cl)cc1Cl (stereo not given)	5.79 µM	18.1 µM	4.11 µM	14.4 µM	2.7 µM	11.6 µM	4.31 µM	15.7 µM	3.43 µM	16.1 µM	3.14 µM	9.95 µM	3.93 µM	16.1 µM	1.89 µM	4.68 µM	3.52 µM	13.8 µM	13.2	27
CC(C)(C)OC(=O)NCC(CNC(=O)OC(C)(C)C)C(N)=O		> 100 µM		> 100 µM		> 100 µM		> 100 µM		> 100 µM		> 100 µM		> 100 µM		> 100 µM		> 100 µM		> 100
COc1nc(N)nc2c1ncn2C1CC(O)C(CO)O1 (stereo not given)		> 100 µM		> 100 µM		> 100 µM		> 100 µM		> 100 µM		> 100 µM		> 100 µM		> 100 µM		> 100 µM		> 100
Cc1cc2c(F)c(Oc3ncnc(Nc4ccc(N5C[C@@H](C)N[C@@H](C)C5)cc4)c3C#N)cc(F)c2[nH]1	0.0134 µM	0.384 µM	1.68 µM	3.58 µM	3.31 µM	11.1 µM	2.86 µM	9.87 µM	1.87 µM	3.59 µM	1.61 µM	3.48 µM	1.98 µM	4.39 µM	2.03 µM	4.61 µM	2.8 µM	9.11 µM	2.06	4.04
Cc1ccc(OCC2CO2)c(Br)c1 (stereo not given)		> 100 µM		32.3 µM		> 100 µM		> 100 µM		95.9 µM		> 100 µM		58 µM		48.2 µM		20.4 µM		> 100
COc1cc(-c2nn(-c3cccc(NC(=O)Nc4ccc(Cl)c(C(F)(F)F)c4)c3)cc2-c2ccncc2)ccc1Cl	0.837 µM	6.97 µM	0.711 µM	1.54 µM	1.5 µM	> 32.5 µM	1.31 µM	6.49 µM	1.08 µM	3.71 µM	0.838 µM	2.35 µM	0.76 µM	2.6 µM	0.683 µM	1.69 µM	1.05 µM	5.87 µM	1.21	6.03
O=C1C2CCN(CC2)C1CN1CCOCC1 (stereo not given)		31.2 µM		3.27 µM		20.1 µM		34 µM		6.46 µM		3.28 µM		40.5 µM		> 100 µM		13.6 µM		10.2
C[C@@H]1C[C@H](N)C[C@H](c2ccncc2NC(=O)c2ccc(F)c(-c3c(F)cccc3F)n2)C1	11.6 µM and 4.53 µM	24.8 µM and > 10 µM	4.38 µM and 3.84 µM	22.1 µM and > 10 µM	13.5 µM and > 10 µM	26.3 µM and > 10 µM	10.6 µM and > 10 µM	25.2 µM and > 10 µM	12.9 µM and 2.35 µM	27.2 µM and > 10 µM	10.5 µM and > 10 µM	24.3 µM and > 10 µM	12.8 µM and 4.01 µM	26.8 µM and > 10 µM	10.4 µM and 9.19 µM	22.1 µM and > 10 µM	17.1 µM and > 10 µM	32.8 µM and > 10 µM		
NC(=O)c1cc(N2CC2)c([N+](=O)[O-])cc1[N+](=O)[O-]		200 µM	> 200 µM	> 200 µM		> 200 µM	> 200 µM	> 200 µM	> 200 µM	> 200 µM		> 200 µM		> 200 µM		> 200 µM	> 200 µM	> 200 µM	> 200	> 200
O=C(O)Cc1cccc2c(=O)cc(-c3ccccc3)oc12	307 µM	250 µM and 979 µM	636 µM	> 1000 µM	> 250 µM	> 1000 µM		250 µM and > 1000 µM	519 µM	> 1000 µM	725 µM	> 1000 µM	834 µM	> 1000 µM	518 µM	> 1000 µM	84.5 µM	> 1000 µM	614	> 1000
CCC1=C(c2ccc(OC)cc2)C(C)(C)Oc2c1ccc(O)c2CN1CCCC1	1.23 µM	7.95 µM	14.9 µM	87.4 µM	3.77 µM	> 100 µM	1.99 µM	7.03 µM	1.65 µM	3.39 µM	2.05 µM	5.36 µM	2.39 µM	4.97 µM	1.71 µM	4.03 µM	2.11 µM	4.94 µM	1.78	3.85
NCCCCC(NC(=O)C(N)CCCN=C(N)N)C(=O)NC(CCCCN)C(=O)NC(CCCN=C(N)N)C(=O)NC(CCCN=C(N)N)C(=O)NC(CCC(N)=O)C(=O)NC(CCCN=C(N)N)C(=O)NC(CCCN=C(N)N)C(=O)NC(CCCN=C(N)N)C(=O)NCC(=O)NCC(=O)O (stereo not given)	> 50 µM	> 50 µM	> 50 µM	> 50 µM	> 50 µM	> 50 µM	> 50 µM	> 50 µM	> 50 µM	> 50 µM	> 50 µM	> 50 µM	> 50 µM	> 50 µM	> 50 µM	> 50 µM	> 50 µM	> 50 µM		
CC1(C)Oc2ccc3ccc(=O)oc3c2C(O)C1O (stereo not given)		> 100 µM		45.1 µM		> 100 µM		> 100 µM		> 100 µM		> 100 µM		> 100 µM		> 100 µM		> 100 µM		94.9
CCOC(=O)c1[nH]c2cc(Cl)ccc2c1[C@@H](C(=O)NC(C)(C)C)N(CC)C(=O)CCCCC#Cc1cccc2c1CN(C1CCC(=O)NC1=O)C2=O (stereo not given in full)	< 0.0104 µM	0.0723 µM	0.0308 µM	2.53 µM	3.06 µM	46.8 µM	< 0.01 µM	6.81 µM	0.213 µM	17.7 µM	< 0.01 µM	0.456 µM	< 0.01 µM	1.68 µM	2.34 µM	> 31.7 µM	< 0.01 µM	35 µM	3.05	> 87.5
COc1cc2nc(Nc3cccc(Cl)c3)nc(N)c2cc1OC	6.57 µM	20.1 µM	1.68 µM	3.39 µM	6.74 µM	22.8 µM	5.81 µM	18.3 µM	1.87 µM	3.73 µM	2.47 µM	6.62 µM	4.28 µM	14.5 µM	2.81 µM	9.71 µM	6.29 µM	22.6 µM	2.11	4.48

Source: PubChem BioAssay (NCI)
